Laboratory results as given in patent US20260028336A1 (Arcus Biosciences, Inc., priority 2022, published 2026).

What was measured:
Cbl-b = target: T1, Cbl-b (Homo sapiens, UniProt Q13191); experiment: Cbl-b probe displacement HTRF binding assay; details: 0.4 nM biotinylated Cbl-b, 150 nM BODIPY probe
T1 construct: biotin (biotinylated)
Description: The affinity with which compounds of the present dislcosure bind to Cbl-b was assessed using probe displacement homologous time resolved fluorescence (HTRF) assays. […] The assays were performed in assay buffer consisting of 20 mM Hepes, 150 mM NaCl, 0.01% Triton X-100, 0.5 mM TCEP, 0.01% BSA. On the day of the assay, a 20 point, 1:2 master serial dilution of each compound was prepared in DMSO to span a final concentration range of […] to 0 nM. Two hundred nanoliters of diluted compound was added to each well of a 384-well plate. Fifteen microliters of biotinylated-Cbl-b resuspended in assay buffer were added to each well and the plate incubated for 60 minutes at room temperature prior to addition of 5 μL of BODIPY™ probe in assay buffer. […] After a further 15 minutes of incubation at room temperature, 5 μl of Streptavidin-Terbium cryptate reagent at 5-fold final concentration was added to each well of the 384-well plate. Binding of a probe to Cbl-b results in an increase of HTRF signal. […] Percentage maximum activity in each test well was calculated based on DMSO (maximum activity, 0% displacement) and no protein control wells (baseline activity, 100% displacement). Binding affinity was determined from a dose response curve fitted using a standard four parameter fit equation.

Jurkat cells = experiment: IL-2 secretion assay in CD3/CD28-activated Jurkat cells (AlphaLISA); type: cell-based; details: Homo sapiens, CD3/CD28 T Cell Activator, 24 h, IL-2 AlphaLISA
Description: Certain compounds were also evaluated in an IL-2 secretion assay. On the day of the assay, a 16 point, 1:2 master serial dilution of each compound was prepared in Opti-MEM to span a final concentration range of 10 μM to 300 pM. Assays were set up in CORNING® tissue culture-treated 384-well microplates containing 60 nL of each dilution. […] 50,000 cells/well and added to the compound plates. After a short spin (1200 rpm for 1 min), the plates were incubated at 37° C. for 1 hour. The cells were activated by adding 15 μL of IMMUNOCULT™ Human CD3/CD28 T Cell Activator ([…] Technologies) diluted in Opti-MEM. […] The AiphaLISA signal was measured using an EnVision plate reader (PerkinElmer). EC50 values were determined by fitting the data to a standard 4-parameter logistic equation.

T1 sequence (Q13191 whole entry, species assumed): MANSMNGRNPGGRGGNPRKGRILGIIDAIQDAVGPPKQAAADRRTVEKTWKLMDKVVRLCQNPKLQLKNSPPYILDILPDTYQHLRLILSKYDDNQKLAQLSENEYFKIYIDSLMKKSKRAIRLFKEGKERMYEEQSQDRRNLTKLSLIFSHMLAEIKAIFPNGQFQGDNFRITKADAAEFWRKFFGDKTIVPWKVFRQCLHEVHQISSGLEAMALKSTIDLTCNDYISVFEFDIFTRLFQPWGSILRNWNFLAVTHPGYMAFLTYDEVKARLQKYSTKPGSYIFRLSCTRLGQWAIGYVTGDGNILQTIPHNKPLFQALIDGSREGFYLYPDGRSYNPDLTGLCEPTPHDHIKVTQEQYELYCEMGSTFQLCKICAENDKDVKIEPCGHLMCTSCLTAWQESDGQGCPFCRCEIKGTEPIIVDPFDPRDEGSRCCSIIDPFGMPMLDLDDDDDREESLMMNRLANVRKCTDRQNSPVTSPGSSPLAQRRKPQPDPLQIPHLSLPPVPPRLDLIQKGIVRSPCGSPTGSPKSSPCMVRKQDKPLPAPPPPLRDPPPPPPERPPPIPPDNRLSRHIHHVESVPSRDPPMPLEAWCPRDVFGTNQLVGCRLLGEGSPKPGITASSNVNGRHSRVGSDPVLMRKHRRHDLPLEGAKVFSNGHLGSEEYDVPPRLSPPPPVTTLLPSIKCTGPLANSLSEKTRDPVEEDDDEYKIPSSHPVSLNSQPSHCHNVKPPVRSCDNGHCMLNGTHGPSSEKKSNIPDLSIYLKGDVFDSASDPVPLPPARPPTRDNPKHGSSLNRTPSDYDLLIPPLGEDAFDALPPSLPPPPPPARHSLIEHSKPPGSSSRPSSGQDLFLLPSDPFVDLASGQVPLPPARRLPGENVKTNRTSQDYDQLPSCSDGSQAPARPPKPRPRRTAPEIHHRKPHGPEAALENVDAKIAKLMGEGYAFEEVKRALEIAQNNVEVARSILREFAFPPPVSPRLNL

IC50 (Cbl-b) [µM] | EC50 (Jurkat cells) [µM] | SMILES
0.1 to 1 | > 5 | Cn1cnnc1C1(c2cccc(-n3cc(C4CC4)c4cc(CN[C@@H]5CCCS(=O)(=O)C5)[nH]c4c3=O)c2)CC(F)(F)C1 [Example 87, (3R)-3-{[(4-cyclopropyl-6-{3-[3,3-difluoro-1-(4-methyl-4H-1,2,4-triazol-3-yl)cyclobutyl]phenyl}-7-oxo-1H,6H,7H-pyrrolo[2,3-c]pyridin-2-yl)methyl]amino}-1λ^6-thiane-1,1-dione]
0.1 to 1 | > 5 | Cn1cnnc1[C@]1(c2cccc(-n3cc(C4CC4)c4[nH]c(=O)[nH]c4c3=O)c2)C[C@@H](C)C1 (single isomer, unassigned) [Example 118, 7-cyclopropyl-5-[3-[trans-3-methyl-1-(4-methyl-1,2,4-triazol-3-yl)cyclobutyl]phenyl]-1,3-dihydroimidazo[4,5-c]pyridine-2,4-dione]
0.1 to 1 | 1 to 5 | Cn1cnnc1C1(c2cccc(-n3cc(C4CC4)c4cc(CN5CCOC6(CC6)C5)[nH]c4c3=O)c2)CC(F)(F)C1 [Example 86, 4-cyclopropyl-6-{3-[3,3-difluoro-1-(4-methyl-4H-1,2,4-triazol-3-yl)cyclobutyl]phenyl}-2-({4-oxa-7-azaspiro[2.5]octan-7-yl}methyl)-1H,6H,7H-pyrrolo[2,3-c]pyridin-7-one]
< 0.1 | 0.1 to 1 | C[C@H]1CCCN(Cc2cc3c(C4CC4)cn(-c4cccc(C5(c6nccn6C)CC(F)(F)C5)c4)c(=O)c3[nH]2)C1 [Example 128, 4-cyclopropyl-6-[3-[3,3-difluoro-1-(1-methylimidazol-2-yl)cyclobutyl]phenyl]-2-[[(3S)-3-methylpiperidin-1-yl]methyl]-1H-pyrrolo[2,3-c]pyridin-7-one]
< 0.1 | < 0.1 | C[C@H]1CCCN(Cc2cc3c(C4CC4)cn(-c4cccc(C5(c6nncn6C(F)F)CC6(CC6)C5)c4)c(=O)c3[nH]2)C1 [Example 150, 4-cyclopropyl-6-[3-[5-[4-(difluoromethyl)-1,2,4-triazol-3-yl]spiro[2.3]hexan-5-yl]phenyl]-2-[[(3S)-3-methylpiperidin-1-yl]methyl]-1H-pyrrolo[2,3-c]pyridin-7-one]
0.1 to 1 | > 5 | Cn1cnnc1[C@]1(c2cccc(-n3cc(C4CC4)c4[nH]c(=O)[nH]c4c3=O)c2)C[C@H](C)C1 (single isomer, unassigned) [Example 117, 7-cyclopropyl-5-[3-[cis-3-methyl-1-(4-methyl-1,2,4-triazol-3-yl)cyclobutyl]phenyl]-1,3-dihydroimidazo[4,5-c]pyridine-2,4-dione]
< 0.1 | < 0.1 | C[C@H]1CCCN(Cc2cc3c(S(C)(=O)=O)cn(-c4cccc([C@]5(c6nncn6C)C[C@@H](C)C5)c4)c(=O)c3[nH]2)C1 (single isomer, unassigned) [Example 107]
< 0.1 | 1 to 5 | CC(C)n1cnnc1C1(c2cccc(-n3cc(C4CC4)c4cc(CN5CCC[C@H](C)C5)[nH]c4c3=O)c2)CC2(CC2)C1 [Example 145, 4-Cyclopropyl-2-[[(3S)-3-methylpiperidin-1-yl]methyl]-6-[3-[5-(4-propan-2-yl-1,2,4-triazol-3-yl)spiro[2.3]hexan-5-yl]phenyl]-1H-pyrrolo[2,3-c]pyridin-7-one]
0.1 to 1 | 1 to 5 | Cn1cnnc1C1(c2cccc(-n3cc(C4CC4)c4cc[nH]c4c3=O)c2)CCC1 [Example 9, 4-cyclopropyl-6-[3-[1-(4-methyl-1,2,4-triazol-3-yl)cyclobutyl]phenyl]-1H-pyrrolo[2,3-c]pyridin-7-one]
< 0.1 | < 0.1 | CC1CC(c2cccc(-n3cnc4cc(CN5CCC[C@H](C)C5)[nH]c4c3=O)c2)(c2nncn2C)C1 (mixture of isomers) [Example 119, 6—{[(3S)-3-Methylpiperidin-1-yl]methyl}-3-{3-[(1R,3S)-3-methyl-1-(4-methyl-4H-1,2,4-triazol-3-yl)cyclobutyl]phenyl}-3H,4H,5H-pyrrolo[3,2-d]pyrimidin-4-one]
< 0.1 | 0.1 to 1 | CC1CC(c2cccc(-n3cc(C4CC4)c4cc(CN(C)C5CC5)[nH]c4c3=O)c2)(c2nncn2C)C1 (centres unmarked) [Example 54, 4-cyclopropyl-2-{I[cyclopropyl(methyl)amino]methyl}-6-{3-[3-methyl-1-(4-methyl-4H-1,2,4-triazol-3-yl)cyclobutyl]phenyl}-1H,6H,7H-pyrrolo[2,3-c]pyridin-7-one]
< 0.1 | 0.1 to 1 | CC1CC(c2cccc(-n3cc(C4CC4)c4cc(CNCCOC(F)(F)F)[nH]c4c3=O)c2)(c2nncn2C)C1 (centres unmarked) [Example 46, 4-cyclopropyl-6-{3-[3-methyl-1-(4-methyl-4H-1,2,4-triazol-3-yl)cyclobutyl]phenyl}-2-({[2-(trifluoromethoxy)ethyl]amino}methyl)-1H,6H,7H-pyrrolo[2,3-c]pyridin-7-one]
< 0.1 | 0.1 to 1 | COC(c1cccc(-n2cc(C3CC3)c3cc(CN4CCC[C@H](C)C4)[nH]c3c2=O)c1)c1nncn1C (some centres unmarked) [Example 158]
0.1 to 1 | 0.1 to 1 | C[C@H]1CCCN(Cc2cc3c(C4CC4)cn(-c4cccc(C5(c6ncco6)CC(F)(F)C5)c4)c(=O)c3[nH]2)C1 [Example 127, 4-cyclopropyl-6-[3-[3,3-difluoro-1-(1,3-oxazol-2-yl)cyclobutyl]phenyl]-2-[[(3S)-3-methylpiperidin-1-yl]methyl]-1H-pyrrolo[2,3-c]pyridin-7-one]
< 0.1 | < 0.1 | C[C@H]1CCCN(Cc2nc3c(C4CC4)cn(-c4cccc(C5(c6nncn6C)CC(F)(F)C5)c4)c(=O)c3[nH]2)C1 [Example 112, 7-cyclopropyl-5-[3-[3,3-difluoro-1-(4-methyl-1,2,4-triazol-3-yl)cyclobutyl]phenyl]-2-[[(3S)-3-methylpiperidin-1-yl]methyl]-3H-imidazo[4,5-c]pyridin-4-one]
< 0.1 | > 5 | CC1CC(c2cccc(-n3cc(C4CC4)c4cc(CN5C[C@@H]6C[C@H]5CN6)[nH]c4c3=O)c2)(c2nncn2C)C1 (stereo partly drawn) [Example 59, 4-cyclopropyl-2-{[(1S,4S)-2,5-diazabicyclo[2.2.1]heptan-2-yl]methyl}-6-{3-[3-methyl-1-(4-methyl-4H-1,2,4-triazol-3-yl)cyclobutyl]phenyl}-1H,6H,7H-pyrrolo[2,3-c]pyridin-7-one]
1 to 5 | > 5 | CC1CC(c2cccc(-n3cc(C(=O)O)c4cn[nH]c4c3=O)c2)(c2nncn2C)C1 (mixture of isomers) [Example 141, 7-Oxo-6-{3-[(1R,3S)-3-methyl-1-(4-methyl-4H-1,2,4-triazol-3-yl)cyclobutyl]phenyl}-1H,6H,7H-pyrazolo[3,4-c]pyridine-4-carboxylic acid]
< 0.1 | < 0.1 | C[C@H]1CCCN(Cc2cc3ncn(-c4cccc([C@]5(c6nncn6C(F)F)C[C@H](F)C5)c4)c(=O)c3[nH]2)C1 [Example 149, 2—{[(S)-3-methyl-1-piperidyl]methyl}-6-(m-{(1r,3S)-1-[4-(difluoromethyl)-4H-1,2,4-triazol-3-yl]-3-fluorocyclobutyl}phenyl)-1,6-dihydro-1,4,6-triaza-7-indenone]
< 0.1 | 0.1 to 1 | CC1CC(c2cccc(-n3cc(C4CC4)c4cc(CN[C@@H]5COC[C@@H]5O)[nH]c4c3=O)c2)(c2nncn2C)C1 (stereo partly drawn) [Example 40, 4-cyclopropyl-2-({[(3R,4R)-4-hydroxyoxolan-3-yl]amino}methyl)-6-{3-[3-methyl-1-(4-methyl-4H-1,2,4-triazol-3-yl)cyclobutyl]phenyl}-1H,6H,7H-pyrrolo[2,3-c]pyridin-7-one]
0.1 to 1 | 0.1 to 1 | C[C@H]1CCCN(Cc2cc3c(C4CC4)cn(-c4cccc(C(F)c5nncn5C)c4)c(=O)c3[nH]2)C1 (stereo partly drawn) [Example 162, 4-cyclopropyl-6-[3-[fluoro-(4-methyl-1,2,4-triazol-3-yl)methyl]phenyl]-2-[[(3S)-3-methylpiperidin-1-yl]methyl]-1H-pyrrolo[2,3-c]pyridin-7-one]

SMILES | IC50 (Cbl-b) [µM] | EC50 (Jurkat cells) [µM]
CC1CC(c2cccc(-n3cc(C4CC4)c4cc(CN5[C@@H]6COC[C@H]5C6)[nH]c4c3=O)c2)(c2nncn2C)C1 (stereo partly drawn) [Example 60, 4-cyclopropyl-6-{3-[3-methyl-1-(4-methyl-4H-1,2,4-triazol-3-yl)cyclobutyl]phenyl}-2-{[(1R,5S)-3-oxa-6-azabicyclo[3.1.1]heptan-6-yl]methyl}-1H,6H,7H-pyrrolo[2,3-c]pyridin-7-one] | < 0.1 | 1 to 5
C[C@H]1CCCN(Cc2cc3c(C4CC4)cn(-c4cccc(C(C)(F)c5nccn5C)c4)c(=O)c3[nH]2)C1 (some centres unmarked) [Example 164] | 1 to 5 | 1 to 5
